According to paper PMC4979471 (Cell Death Discovery, 2015):
Where two headings read alike, the source gives them in different places.

Columns and labels:
Assay in all cases: Kinase selectivity, P33-radiolabeled assay
Assay type in all cases: biochemical
Conditions in all cases: 10 μM ATP
[1] = molecular target: T1, PYK2 (Homo sapiens, UniProt Q14289)
T1 construct: purchased Reaction Biology Corp
Outline: (§1)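 Each enzyme was exposed to 10 μM compound, with duplicate measurements, in reactions containing 10 μM ATP. Numbers are remaining activity as a percent of the vehicle (DMSO) signal.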

[2] = molecular target: T2, GSK3a (Homo sapiens, UniProt P49840)
T2 construct: purchased Reaction Biology Corp
T2 sequence (P49840 whole entry): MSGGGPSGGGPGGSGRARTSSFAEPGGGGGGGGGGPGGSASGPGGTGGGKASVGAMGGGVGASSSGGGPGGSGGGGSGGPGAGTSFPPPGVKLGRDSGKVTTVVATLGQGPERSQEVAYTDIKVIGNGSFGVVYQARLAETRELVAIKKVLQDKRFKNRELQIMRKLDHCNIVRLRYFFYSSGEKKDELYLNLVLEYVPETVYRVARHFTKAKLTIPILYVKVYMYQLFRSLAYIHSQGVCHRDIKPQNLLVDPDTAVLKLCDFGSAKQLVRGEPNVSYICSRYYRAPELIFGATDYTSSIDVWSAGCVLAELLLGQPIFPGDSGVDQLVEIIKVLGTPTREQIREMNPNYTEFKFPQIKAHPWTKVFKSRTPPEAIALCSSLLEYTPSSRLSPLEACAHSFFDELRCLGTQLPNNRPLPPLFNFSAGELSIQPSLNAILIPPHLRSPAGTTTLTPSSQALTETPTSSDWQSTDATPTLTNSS
Outline: as §1

[3] = molecular target: T3, MARK1 (Homo sapiens, UniProt Q9P0L2)
T3 construct: purchased Reaction Biology Corp
T3 sequence (Q9P0L2 whole entry): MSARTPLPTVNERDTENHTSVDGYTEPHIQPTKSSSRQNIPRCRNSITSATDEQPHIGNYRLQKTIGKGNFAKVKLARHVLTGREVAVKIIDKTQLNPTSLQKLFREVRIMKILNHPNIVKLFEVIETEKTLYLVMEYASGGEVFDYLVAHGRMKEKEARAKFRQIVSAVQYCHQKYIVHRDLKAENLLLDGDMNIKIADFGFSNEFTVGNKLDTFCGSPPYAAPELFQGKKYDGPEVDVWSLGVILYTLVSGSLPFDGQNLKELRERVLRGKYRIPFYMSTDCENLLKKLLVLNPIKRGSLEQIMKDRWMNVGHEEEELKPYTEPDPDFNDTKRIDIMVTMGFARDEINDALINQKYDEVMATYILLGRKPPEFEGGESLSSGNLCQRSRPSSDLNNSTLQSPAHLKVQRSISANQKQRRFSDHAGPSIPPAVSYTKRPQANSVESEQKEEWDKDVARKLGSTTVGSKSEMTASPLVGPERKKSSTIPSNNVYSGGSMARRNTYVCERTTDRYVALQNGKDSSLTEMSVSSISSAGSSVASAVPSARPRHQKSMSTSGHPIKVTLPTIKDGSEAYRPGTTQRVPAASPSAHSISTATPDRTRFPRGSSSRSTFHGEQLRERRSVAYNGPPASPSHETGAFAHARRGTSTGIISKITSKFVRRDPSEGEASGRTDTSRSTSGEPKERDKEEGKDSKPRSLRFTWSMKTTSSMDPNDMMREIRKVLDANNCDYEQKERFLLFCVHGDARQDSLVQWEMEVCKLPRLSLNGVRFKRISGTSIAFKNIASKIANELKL
Outline: as §1

[4] = molecular target: T4, NEK6 (Homo sapiens, UniProt Q9HC98)
T4 construct: purchased Reaction Biology Corp
T4 sequence (Q9HC98 whole entry): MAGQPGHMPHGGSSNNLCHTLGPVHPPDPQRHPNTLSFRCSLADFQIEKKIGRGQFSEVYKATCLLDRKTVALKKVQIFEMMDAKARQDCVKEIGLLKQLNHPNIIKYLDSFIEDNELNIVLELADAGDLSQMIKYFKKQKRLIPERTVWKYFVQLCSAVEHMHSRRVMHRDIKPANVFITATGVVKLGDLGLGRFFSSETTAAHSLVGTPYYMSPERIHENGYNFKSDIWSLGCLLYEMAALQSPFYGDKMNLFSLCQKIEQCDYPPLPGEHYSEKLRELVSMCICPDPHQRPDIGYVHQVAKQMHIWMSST
Outline: as §1

[5] = molecular target: T5, NEK1 (Homo sapiens, UniProt Q96PY6)
T5 construct: purchased Reaction Biology Corp
T5 sequence (Q96PY6 1-1258): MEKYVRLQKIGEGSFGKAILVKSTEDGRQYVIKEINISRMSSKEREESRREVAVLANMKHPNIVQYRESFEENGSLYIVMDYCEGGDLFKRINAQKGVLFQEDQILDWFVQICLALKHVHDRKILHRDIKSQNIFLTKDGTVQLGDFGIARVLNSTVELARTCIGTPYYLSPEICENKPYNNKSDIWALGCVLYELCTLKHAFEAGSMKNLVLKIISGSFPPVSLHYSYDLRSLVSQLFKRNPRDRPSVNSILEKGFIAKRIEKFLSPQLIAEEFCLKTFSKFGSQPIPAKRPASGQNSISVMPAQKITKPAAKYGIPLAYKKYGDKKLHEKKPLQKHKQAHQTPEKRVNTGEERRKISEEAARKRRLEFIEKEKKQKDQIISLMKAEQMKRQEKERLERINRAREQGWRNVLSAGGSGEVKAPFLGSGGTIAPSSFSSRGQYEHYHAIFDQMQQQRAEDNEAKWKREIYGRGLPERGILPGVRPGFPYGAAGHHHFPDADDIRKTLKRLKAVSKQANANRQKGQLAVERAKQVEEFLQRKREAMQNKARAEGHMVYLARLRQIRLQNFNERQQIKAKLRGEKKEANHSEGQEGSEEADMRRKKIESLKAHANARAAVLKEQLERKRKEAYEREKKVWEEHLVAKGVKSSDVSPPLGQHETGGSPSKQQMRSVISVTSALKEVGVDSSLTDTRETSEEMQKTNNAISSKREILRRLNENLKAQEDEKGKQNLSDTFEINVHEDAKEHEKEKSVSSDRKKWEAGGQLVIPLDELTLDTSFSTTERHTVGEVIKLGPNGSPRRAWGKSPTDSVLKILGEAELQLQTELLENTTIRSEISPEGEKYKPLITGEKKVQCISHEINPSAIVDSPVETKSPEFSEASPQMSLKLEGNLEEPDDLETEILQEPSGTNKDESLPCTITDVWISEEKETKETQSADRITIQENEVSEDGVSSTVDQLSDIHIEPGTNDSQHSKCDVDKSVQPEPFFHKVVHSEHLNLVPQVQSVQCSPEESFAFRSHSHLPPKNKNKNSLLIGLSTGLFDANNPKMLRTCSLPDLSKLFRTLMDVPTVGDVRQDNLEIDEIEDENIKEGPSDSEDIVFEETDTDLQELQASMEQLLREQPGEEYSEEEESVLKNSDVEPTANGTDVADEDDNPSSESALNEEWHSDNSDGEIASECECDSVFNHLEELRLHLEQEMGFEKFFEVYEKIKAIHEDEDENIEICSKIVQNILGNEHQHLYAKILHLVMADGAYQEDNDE
Outline: as §1

[6] = molecular target: T6, PKD2/PRKD2 (Homo sapiens, UniProt Q9BZL6)
T6 construct: purchased Reaction Biology Corp
T6 sequence (Q9BZL6 1-878): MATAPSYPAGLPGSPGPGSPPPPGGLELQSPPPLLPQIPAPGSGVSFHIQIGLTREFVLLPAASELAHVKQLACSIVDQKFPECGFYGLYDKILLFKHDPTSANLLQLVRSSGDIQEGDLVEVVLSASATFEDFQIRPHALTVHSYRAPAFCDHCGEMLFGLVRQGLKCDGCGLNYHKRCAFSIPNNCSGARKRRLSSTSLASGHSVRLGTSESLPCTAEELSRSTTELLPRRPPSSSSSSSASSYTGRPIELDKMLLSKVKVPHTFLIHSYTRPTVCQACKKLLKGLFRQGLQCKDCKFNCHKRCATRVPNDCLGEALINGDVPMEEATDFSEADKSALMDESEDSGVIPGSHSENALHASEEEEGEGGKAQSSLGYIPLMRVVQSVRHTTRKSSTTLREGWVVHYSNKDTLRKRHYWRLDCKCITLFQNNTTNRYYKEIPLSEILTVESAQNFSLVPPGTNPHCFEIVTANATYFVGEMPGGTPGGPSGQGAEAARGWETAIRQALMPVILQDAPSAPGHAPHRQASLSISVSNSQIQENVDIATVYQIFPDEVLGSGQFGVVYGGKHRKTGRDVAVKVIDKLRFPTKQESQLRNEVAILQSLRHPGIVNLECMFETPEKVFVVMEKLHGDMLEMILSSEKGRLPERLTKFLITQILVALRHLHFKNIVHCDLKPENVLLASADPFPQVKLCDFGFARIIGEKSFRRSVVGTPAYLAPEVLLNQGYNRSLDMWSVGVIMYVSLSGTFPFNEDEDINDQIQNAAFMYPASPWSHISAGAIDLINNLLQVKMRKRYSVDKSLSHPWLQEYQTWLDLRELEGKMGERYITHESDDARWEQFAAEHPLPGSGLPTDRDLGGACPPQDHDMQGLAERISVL
Outline: as §1

[7] = molecular target: T7, STK32B/YANK2 (Homo sapiens, UniProt Q9NY57)
T7 construct: purchased Reaction Biology Corp
T7 sequence (Q9NY57 whole entry): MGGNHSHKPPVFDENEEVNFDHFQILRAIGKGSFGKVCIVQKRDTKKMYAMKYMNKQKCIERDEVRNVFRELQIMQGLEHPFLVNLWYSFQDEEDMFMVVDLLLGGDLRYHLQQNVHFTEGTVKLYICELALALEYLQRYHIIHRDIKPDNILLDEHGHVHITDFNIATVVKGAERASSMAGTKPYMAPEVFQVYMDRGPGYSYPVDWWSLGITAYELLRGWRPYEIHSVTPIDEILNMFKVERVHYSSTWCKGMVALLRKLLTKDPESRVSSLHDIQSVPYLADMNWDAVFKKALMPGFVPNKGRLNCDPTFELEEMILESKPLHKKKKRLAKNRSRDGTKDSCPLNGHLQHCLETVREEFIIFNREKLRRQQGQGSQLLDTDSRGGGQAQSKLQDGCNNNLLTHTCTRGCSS
Outline: as §1

[8] = molecular target: T8, GRK4 (Homo sapiens, UniProt P32298)
T8 construct: purchased Reaction Biology Corp
T8 sequence (P32298 whole entry): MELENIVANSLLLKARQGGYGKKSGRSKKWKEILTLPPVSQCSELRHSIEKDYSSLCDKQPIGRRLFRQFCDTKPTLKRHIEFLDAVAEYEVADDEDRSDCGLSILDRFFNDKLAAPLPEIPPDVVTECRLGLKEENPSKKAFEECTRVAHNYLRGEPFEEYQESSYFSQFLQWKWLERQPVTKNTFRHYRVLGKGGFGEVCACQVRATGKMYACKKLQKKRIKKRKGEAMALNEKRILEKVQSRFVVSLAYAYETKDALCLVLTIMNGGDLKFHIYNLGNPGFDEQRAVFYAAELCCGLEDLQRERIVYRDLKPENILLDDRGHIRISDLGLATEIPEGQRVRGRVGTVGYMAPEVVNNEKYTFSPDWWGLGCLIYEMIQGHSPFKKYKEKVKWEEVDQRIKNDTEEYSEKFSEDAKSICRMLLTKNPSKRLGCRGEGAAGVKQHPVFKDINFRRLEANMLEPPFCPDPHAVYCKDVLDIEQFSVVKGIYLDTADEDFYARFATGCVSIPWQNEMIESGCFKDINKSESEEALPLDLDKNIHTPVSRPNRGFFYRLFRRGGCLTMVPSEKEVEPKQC
Outline: as §1

[9] = molecular target: T9, CDK9/cyclin K (Homo sapiens, UniProt P50750)
T9 construct: purchased Reaction Biology Corp
T9 sequence (P50750 whole entry): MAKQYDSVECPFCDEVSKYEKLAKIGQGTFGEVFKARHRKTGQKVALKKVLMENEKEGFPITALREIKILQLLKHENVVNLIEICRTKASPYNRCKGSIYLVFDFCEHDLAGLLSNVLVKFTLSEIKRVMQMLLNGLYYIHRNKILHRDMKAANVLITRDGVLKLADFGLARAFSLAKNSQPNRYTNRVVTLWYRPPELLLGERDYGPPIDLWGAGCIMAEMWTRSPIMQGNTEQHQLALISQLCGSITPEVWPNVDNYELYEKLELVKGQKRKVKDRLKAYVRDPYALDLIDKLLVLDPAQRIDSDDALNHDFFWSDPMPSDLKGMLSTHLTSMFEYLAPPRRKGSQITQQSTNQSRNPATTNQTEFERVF
T9 sequence (O75909 whole entry partner): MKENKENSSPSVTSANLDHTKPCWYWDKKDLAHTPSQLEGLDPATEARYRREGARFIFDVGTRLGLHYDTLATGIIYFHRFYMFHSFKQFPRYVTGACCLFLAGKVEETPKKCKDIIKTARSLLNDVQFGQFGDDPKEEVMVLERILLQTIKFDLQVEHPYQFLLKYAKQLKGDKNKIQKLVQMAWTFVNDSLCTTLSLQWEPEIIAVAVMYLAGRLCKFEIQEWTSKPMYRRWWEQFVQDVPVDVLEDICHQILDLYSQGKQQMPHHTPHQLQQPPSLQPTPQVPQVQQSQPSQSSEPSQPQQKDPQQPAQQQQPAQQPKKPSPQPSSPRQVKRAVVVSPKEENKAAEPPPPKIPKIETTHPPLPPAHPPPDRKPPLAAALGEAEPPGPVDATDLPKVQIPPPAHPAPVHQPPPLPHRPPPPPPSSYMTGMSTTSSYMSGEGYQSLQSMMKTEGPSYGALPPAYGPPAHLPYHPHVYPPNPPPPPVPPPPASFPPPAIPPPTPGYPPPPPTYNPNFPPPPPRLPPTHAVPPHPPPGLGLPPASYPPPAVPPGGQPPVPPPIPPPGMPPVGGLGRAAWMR
Outline: as §1

[10] = read-out: % Enzyme Activity (relative to DMSO controls) AVG
[11] = read-out: % Enzyme Activity (relative to DMSO controls) Data 1
[12] = read-out: % Enzyme Activity (relative to DMSO controls) Data 2

T1 sequence (Q14289 whole entry): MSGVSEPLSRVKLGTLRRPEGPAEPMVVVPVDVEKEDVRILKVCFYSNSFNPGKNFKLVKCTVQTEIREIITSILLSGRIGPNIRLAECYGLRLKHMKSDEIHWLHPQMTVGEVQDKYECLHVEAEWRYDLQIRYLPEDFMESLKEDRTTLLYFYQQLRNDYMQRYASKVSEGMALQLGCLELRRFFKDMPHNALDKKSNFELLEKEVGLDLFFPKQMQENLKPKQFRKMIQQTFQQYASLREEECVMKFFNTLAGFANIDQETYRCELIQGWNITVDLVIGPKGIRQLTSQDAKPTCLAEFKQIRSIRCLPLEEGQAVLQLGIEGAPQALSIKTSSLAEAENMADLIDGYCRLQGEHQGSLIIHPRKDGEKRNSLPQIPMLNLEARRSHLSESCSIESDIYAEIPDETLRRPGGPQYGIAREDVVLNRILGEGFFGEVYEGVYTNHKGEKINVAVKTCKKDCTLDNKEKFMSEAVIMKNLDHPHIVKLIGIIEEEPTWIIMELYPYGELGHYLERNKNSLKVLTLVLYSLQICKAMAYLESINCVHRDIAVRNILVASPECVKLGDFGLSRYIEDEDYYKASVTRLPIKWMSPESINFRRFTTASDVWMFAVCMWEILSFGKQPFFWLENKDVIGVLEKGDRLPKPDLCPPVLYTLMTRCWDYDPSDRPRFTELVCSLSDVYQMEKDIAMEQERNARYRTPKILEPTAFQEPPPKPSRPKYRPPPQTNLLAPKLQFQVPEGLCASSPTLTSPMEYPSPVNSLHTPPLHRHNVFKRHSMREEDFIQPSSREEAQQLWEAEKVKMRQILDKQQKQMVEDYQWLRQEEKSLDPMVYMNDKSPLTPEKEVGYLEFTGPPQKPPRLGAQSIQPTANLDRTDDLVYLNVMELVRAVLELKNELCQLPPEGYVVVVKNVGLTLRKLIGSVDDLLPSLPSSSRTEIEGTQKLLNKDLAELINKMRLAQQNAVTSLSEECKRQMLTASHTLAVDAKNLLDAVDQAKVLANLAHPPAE

SMILES: CC(C)(C)C(=O)N1N=CC[C@H]1c1ccccc1 [GSK′963]
- remaining activity at 10 µM [1, 10]: 103%
- remaining activity at 10 µM [1, 11]: 103%
- remaining activity at 10 µM [1, 12]: 103%
- remaining activity at 10 µM [2, 10]: 111%
- remaining activity at 10 µM [2, 11]: 107%
- remaining activity at 10 µM [2, 12]: 114%
- remaining activity at 10 µM [3, 10]: 105%
- remaining activity at 10 µM [3, 11]: 105%
- remaining activity at 10 µM [3, 12]: 105%
- remaining activity at 10 µM [4, 10]: 97.9%
- remaining activity at 10 µM [4, 11]: 100%
- remaining activity at 10 µM [4, 12]: 95.5%
- remaining activity at 10 µM [5, 10]: 97.5%
- remaining activity at 10 µM [5, 11]: 97.1%
- remaining activity at 10 µM [5, 12]: 98%
- remaining activity at 10 µM [6, 10]: 102%
- remaining activity at 10 µM [6, 11]: 101%
- remaining activity at 10 µM [6, 12]: 104%
- remaining activity at 10 µM [7, 10]: 98.5%
- remaining activity at 10 µM [7, 11]: 98.6%
- remaining activity at 10 µM [7, 12]: 98.4%
- remaining activity at 10 µM [8, 10]: 97.9%
- remaining activity at 10 µM [8, 11]: 97.9%
- remaining activity at 10 µM [8, 12]: 97.8%
- remaining activity at 10 µM [9, 10]: 114%
- remaining activity at 10 µM [9, 11]: 112%
- remaining activity at 10 µM [9, 12]: 116%
